Where two headings read alike, the source gives them in different places.
Columns and labels:
[1] = test system: HCT116/VM46 (a vinblastine-resistant strain of HCT116) cells; test: Cell growth inhibition assay, HCT116/VM46; type: cell-based, human; conditions: 72 hours incubation, phosphatase assay, Pgp-overexpressing resistant line
Experimental: (§1) Compounds were tested for their cell growth inhibition of L1210 (ATCC no. CCL-219, mouse lymphocytic leukemia) cells, HCT116 (ATCC no. CCL-247, human colorectal carcinoma) cells, and HCT116/VM46 (a vinblastine-resistant strain of HCT116) cells in culture. A population of cells (>1×10^6 cells/mL as determined with a hemocytometer) was diluted with an appropriate amount of Dulbecco's Modified Eagle Medium (DMEM, Gibco) containing 10% fetal bovine serum (FBS, Gibco) to a final concentration of 30000 cells/mL.
(§2) To each well of a 96-well plate (Corning Costar), 100 μL of the cell media solution was added with a multichannel pipet. The cultures were incubated at 37° C. in an atmosphere of 5% CO2 and 95% humidified air for 24 hours. The test compounds were added to the plate as follows: test substances were diluted in DMSO to a concentration of 1 mM and 10-fold serial dilutions were performed on a separate 96-well plate. Fresh culture medium (100 μL) was added to each well of cells to constitute 200 μL of medium per well followed by 2 μL of each test agent. Compounds were tested in duplicate (n=2-18 times) at six concentrations between 0-1000 nM or 0-10000 nM. Following addition, cultures were incubated for an additional 72 hours.
(§3) A phosphatase assay was used to establish the IC50 values as follows: the media in each cell was removed and 100 μL of phosphatase solution (100 mg phosphatase substrate in 30 mL of 0.1 M NaOAc, pH 5.5, 0.1% Triton X-100 buffer) was added to each well. The plates were incubated at 37° C. for either 5 minutes (L1210) or 15 minutes (HCT116 and HCT116/VM46). After the given incubation time, 50 μL of 0.1 N NaOH was added to each well and the absorption at 405 nm was determined using a 96 well plate reader. As the absorption is directly proportional to the number of living cells, the IC50 values were calculated and the reported values represent of the average of 4-36 determinations (SD±10%).

[2] = test system: L1210 (mouse lymphocytic leukemia) cells; test: Cell growth inhibition assay, L1210; type: cell-based; conditions: 72 hours incubation, phosphatase assay
Experimental: as §1, §2, §3

[3] = test system: HCT116 (human colorectal carcinoma) cells; test: cells; type: cell-based; conditions: read-out: IC50, HCT116
Experimental: as §1, §2, §3

[4] = 72 hours incubation, phosphatase assay

Compound	IC50 [1] [nM]	IC50 [2] [nM]	IC50 [3, 4] [nM]	IC50 ([1]; Homo sapiens, HCT-116/VM46) [nM]	IC50 ([2]; Mus musculus, L1210) [nM]	IC50 ([3]; Homo sapiens, HCT-116, 72 h) [nM]
CC[C@]1(NC(=O)N2Cc3ccc(NC(=O)c4ccncc4)cc3C2)C[C@H]2CN(CCc3c([nH]c4ccccc34)[C@@](C(=O)OC)(c3cc4c(cc3OC)N(C)[C@H]3[C@@](O)(C(=O)OC)[C@H](OC(C)=O)[C@]5(CC)C=CCN6CC[C@]43[C@@H]65)C2)C1 [Compound 57]	10.4	0.27	0.28			
CC[C@]1(NC(=O)N2Cc3ccc(NC(=O)C(C)(C)C)cc3C2)C[C@H]2CN(CCc3c([nH]c4ccccc34)[C@@](C(=O)OC)(c3cc4c(cc3OC)N(C)[C@H]3[C@@](O)(C(=O)OC)[C@H](OC(C)=O)[C@]5(CC)C=CCN6CC[C@]43[C@@H]65)C2)C1 [Compound 44]	5.3	0.39	0.47			
CCC1(NC(=O)N2CCC(Br)C2)CC2CN(CCc3c([nH]c4ccccc34)C(C(=O)OC)(c3cc4c(cc3OC)N(C)C3C(O)(C(=O)OC)C(OC(C)=O)C5(CC)C=CCN6CCC43C65)C2)C1 (mixture of isomers) [Compound 19]	25	3.1	0.9			
C=CC(=O)Nc1ccc2c(c1)CN(C(=O)N[C@@]1(CC)C[C@H]3CN(CCc4c([nH]c5ccccc45)[C@@](C(=O)OC)(c4cc5c(cc4OC)N(C)[C@H]4[C@@](O)(C(=O)OC)[C@H](OC(C)=O)[C@]6(CC)C=CCN7CC[C@]54[C@@H]76)C3)C1)C2 [Compound 46]	7.1	0.38	0.3			
CC[C@]1(NC(=O)N2Cc3ccc(N(C)C)cc3C2)C[C@H]2CN(CCc3c([nH]c4ccccc34)[C@@](C(=O)OC)(c3cc4c(cc3OC)N(C)[C@H]3[C@@](O)(C(=O)OC)[C@H](OC(C)=O)[C@]5(CC)C=CCN6CC[C@]43[C@@H]65)C2)C1 [Compound 38]	3.9	0.5	0.62			
CCC(=O)Nc1ccc2c(c1)CN(C(=O)N[C@@]1(CC)C[C@H]3CN(CCc4c([nH]c5ccccc45)[C@@](C(=O)OC)(c4cc5c(cc4OC)N(C)[C@H]4[C@@](O)(C(=O)OC)[C@H](OC(C)=O)[C@]6(CC)C=CCN7CC[C@]54[C@@H]76)C3)C1)C2 [Compound 41]	7.7	0.46	0.54			
CC[C@]1(NC(=O)N2Cc3ccc(C(F)(F)F)cc3C2)C[C@H]2CN(CCc3c([nH]c4ccccc34)[C@@](C(=O)OC)(c3cc4c(cc3OC)N(C)[C@H]3[C@@](O)(C(=O)OC)[C@H](OC(C)=O)[C@]5(CC)C=CCN6CC[C@]43[C@@H]65)C2)C1 [Compound 34]	6.2	0.59	0.67			
CC[C@]1(NC(=O)N2Cc3ccc(NC(=O)c4ccnnc4)cc3C2)C[C@H]2CN(CCc3c([nH]c4ccccc34)[C@@](C(=O)OC)(c3cc4c(cc3OC)N(C)[C@H]3[C@@](O)(C(=O)OC)[C@H](OC(C)=O)[C@]5(CC)C=CCN6CC[C@]43[C@@H]65)C2)C1 [Compound 62]	50	0.69	0.64			
CC[C@]1(NC(=O)N2Cc3ccc(NC)cc3C2)C[C@H]2CN(CCc3c([nH]c4ccccc34)[C@@](C(=O)OC)(c3cc4c(cc3OC)N(C)[C@H]3[C@@](O)(C(=O)OC)[C@H](OC(C)=O)[C@]5(CC)C=CCN6CC[C@]43[C@@H]65)C2)C1 [Compound 37]	4.6	0.45	0.43			
CC[C@]1(NC(=O)N2CCC(N(C)C)C2)C[C@H]2CN(CCc3c([nH]c4ccccc34)[C@@](C(=O)OC)(c3cc4c(cc3OC)N(C)[C@H]3[C@@](O)(C(=O)OC)[C@H](OC(C)=O)[C@]5(CC)C=CCN6CC[C@]43[C@@H]65)C2)C1 (single isomer, unassigned) [Compound 10]	500	20	20			
CC[C@]1(NC(=O)N2C3CCC2CC3)C[C@H]2CN(CCc3c([nH]c4ccccc34)[C@@](C(=O)OC)(c3cc4c(cc3OC)N(C)[C@H]3[C@@](O)(C(=O)OC)[C@H](OC(C)=O)[C@]5(CC)C=CCN6CC[C@]43[C@@H]65)C2)C1 [Compound 26]	250	40	20			
CC[C@]1(NC(=O)N2CCCCCCC2)C[C@H]2CN(CCc3c([nH]c4ccccc34)[C@@](C(=O)OC)(c3cc4c(cc3OC)N(C)[C@H]3[C@@](O)(C(=O)OC)[C@H](OC(C)=O)[C@]5(CC)C=CCN6CC[C@]43[C@@H]65)C2)C1 [Compound 25]	330	60	35			
CCCCCC(=O)Nc1ccc2c(c1)CN(C(=O)N[C@@]1(CC)C[C@H]3CN(CCc4c([nH]c5ccccc45)[C@@](C(=O)OC)(c4cc5c(cc4OC)N(C)[C@H]4[C@@](O)(C(=O)OC)[C@H](OC(C)=O)[C@]6(CC)C=CCN7CC[C@]54[C@@H]76)C3)C1)C2 [Compound 45]	13	0.44	0.62			
CCC1(NC(=O)N2Cc3cc(OC)c(OC)cc3C2)C[C@H]2CN(CCc3c([nH]c4ccccc34)[C@@](C(=O)OC)(c3cc4c(cc3OC)N(C)[C@H]3C(O)(C(=O)OC)[C@H](OC(C)=O)[C@]5(CC)C=CCN6CC[C@]43[C@@H]65)C2)C1 (stereo partly drawn) [Compound 54]				5.2	0.42	0.45
CC[C@]1(NC(=O)N2Cc3ccc(NC(=O)c4ccc(C(C)C)cc4)cc3C2)C[C@H]2CN(CCc3c([nH]c4ccccc34)[C@@](C(=O)OC)(c3cc4c(cc3OC)N(C)[C@H]3[C@@](O)(C(=O)OC)[C@H](OC(C)=O)[C@]5(CC)C=CCN6CC[C@]43[C@@H]65)C2)C1 [Compound 53]	60	2.9	4.2			
CC[C@]1(NC(=O)N2Cc3ccc(NC(=O)c4ccc(OC(F)(F)F)cc4)cc3C2)C[C@H]2CN(CCc3c([nH]c4ccccc34)[C@@](C(=O)OC)(c3cc4c(cc3OC)N(C)[C@H]3[C@@](O)(C(=O)OC)[C@H](OC(C)=O)[C@]5(CC)C=CCN6CC[C@]43[C@@H]65)C2)C1 [Compound 52]	75	4.3	5.3			
CC[C@]1(NC(=O)N2Cc3ccc(NC(=O)c4cncnc4)cc3C2)C[C@H]2CN(CCc3c([nH]c4ccccc34)[C@@](C(=O)OC)(c3cc4c(cc3OC)N(C)[C@H]3[C@@](O)(C(=O)OC)[C@H](OC(C)=O)[C@]5(CC)C=CCN6CC[C@]43[C@@H]65)C2)C1 [Compound 59]	8.8	0.51	0.6			
CC[C@]1(NC(=O)N2Cc3ccc(Cl)cc3C2)C[C@H]2CN(CCc3c([nH]c4ccccc34)[C@@](C(=O)OC)(c3cc4c(cc3OC)N(C)[C@H]3[C@@](O)(C(=O)OC)[C@H](OC(C)=O)[C@]5(CC)C=CCN6CC[C@]43[C@@H]65)C2)C1 [Compound 32]	5.7	0.5	0.55			
CC[C@]1(NC(=O)N2CCC(C#N)C2)C[C@H]2CN(CCc3c([nH]c4ccccc34)[C@@](C(=O)OC)(c3cc4c(cc3OC)N(C)[C@H]3[C@@](O)(C(=O)OC)[C@H](OC(C)=O)[C@]5(CC)C=CCN6CC[C@]43[C@@H]65)C2)C1 (single isomer, unassigned) [Compound 20]	60	3.7	1.5			
CC[C@]1(NC(=O)N2Cc3ccc(F)cc3C2)C[C@H]2CN(CCc3c([nH]c4ccccc34)[C@@](C(=O)OC)(c3cc4c(cc3OC)N(C)[C@H]3[C@@](O)(C(=O)OC)[C@H](OC(C)=O)[C@]5(CC)C=CCN6CC[C@]43[C@@H]65)C2)C1 [Compound 31]	5.2	0.63	0.52			
CC[C@]1(NC(=O)N2CCc3ccccc3CC2)C[C@H]2CN(CCc3c([nH]c4ccccc34)[C@@](C(=O)OC)(c3cc4c(cc3OC)N(C)[C@H]3[C@@](O)(C(=O)OC)[C@H](OC(C)=O)[C@]5(CC)C=CCN6CC[C@]43[C@@H]65)C2)C1 [Compound 27]	6.2	0.59	0.69			
CC[C@]1(NC(=O)N2Cc3ccc(C)cc3C2)C[C@H]2CN(CCc3c([nH]c4ccccc34)[C@@](C(=O)OC)(c3cc4c(cc3OC)N(C)[C@H]3[C@@](O)(C(=O)OC)[C@H](OC(C)=O)[C@]5(CC)C=CCN6CC[C@]43[C@@H]65)C2)C1 [Compound 30]	5.9	0.41	0.44			
CCCNc1ccc2c(c1)CN(C(=O)N[C@@]1(CC)C[C@H]3CN(CCc4c([nH]c5ccccc45)[C@@](C(=O)OC)(c4cc5c(cc4OC)N(C)[C@H]4[C@@](O)(C(=O)OC)[C@H](OC(C)=O)[C@]6(CC)C=CCN7CC[C@]54[C@@H]76)C3)C1)C2 [Compound 39]	4.6	0.4	0.31			

Reference: patent US10975101B2, “Ultra-potent vinca alkaloids: added molecular complexity further disrupts the tublin dimer-dimer interface” (priority 2016, dated 2021)
